Results taken from ChEMBL document CHEMBL6134894, “Medoxomil Prodrug Strategies” (J Med Chem, 2025).
pEC50: −log10 of the molar value.

How the values were obtained:
[1] = system: Human immunodeficiency virus 1; test: Antiviral activity against HIV-1 infected in human MT4 cells assessed as inhibition of viral growth; format: functional, organism-based; settings: Human immunodeficiency virus 1, MT4
[2] = Permeability across apical to basolateral side in human Caco-2 cells; format: ADME, cell-based; settings: read-out: permeability
[3] = Oral bioavailability in Beagle dog; format: ADME, organism-based, Canis lupus familiaris; settings: in vivo
[4] = Oral bioavailability in Sprague-Dawley rat; format: ADME, organism-based; settings: in vivo
[5] = Cmax in human at 20 mg/kg, po by LC-MS/MS analysis; format: ADME, organism-based; settings: in vivo
[6] = AUC in human at 20 mg/kg, po by LC-MS/MS analysis; format: ADME, organism-based; settings: in vivo
[7] = Inhibition of ADP-induced platelet aggregation in New Zealand White rabbit; format: functional, Oryctolagus cuniculus
[8] = Oral bioavailability in dog at 0.03 mg/kg; format: ADME, organism-based, Canis lupus familiaris; settings: in vivo
[9] = Oral bioavailability in rat; format: ADME, organism-based; settings: in vivo
[10] = Oral bioavailability in Sprague-Dawley rat at 10 mg/kg measured for 24 hrs by LC-MS/MS analysis; format: ADME, organism-based; settings: in vivo
[11] = Lipophilicity, logP of the compound; format: physicochemical; settings: octanol/water
[12] = Toxicity in Wistar rat assessed as effective dose; settings: in vivo, 6 h
[13] = Half life in Wistar rat at 20 mg/kg, po by LC-MS/MS analysis; format: ADME, organism-based; settings: in vivo
[14] = Water solubility of the compound at pH 7.4 by HPLC analysis; format: physicochemical

Cc1oc(=O)oc1COP(=O)(O)COCCn1cnc2c(N)ncnc21
pEC50 [1]: 4.97

CCOc1nc2cccc(C(=O)O)c2n1Cc1ccc(-c2ccccc2-c2noc(=O)[nH]2)cc1 [AZILSARTAN]
Papp A→B [2]: 0.636 ×10⁻⁶ cm/s

C[C@](N)(Cc1ccc(O)c(O)c1)C(=O)O [METHYLDOPA]
bioavailability [3]: 94.2%

Cc1oc(=O)oc1COC(=O)[C@@](C)(N)Cc1ccc(O)c(O)c1
bioavailability [3]: 92.1%

C=C(c1ccc(C(=O)OCc2oc(=O)oc2C)cc1)c1cc2c(cc1C)C(C)(C)CCC2(C)C
bioavailability [4]: 12%

CC1Sc2c(C(=O)O)c(=O)c3cc(F)c(N4CCNCC4)cc3n21 (stereo unspecified) [ULIFLOXACIN]
Cmax [5]: 630 ng/mL
AUC [6]: 22200 ng·h/mL

Cc1oc(=O)oc1COC(=O)N1CCC(CC[C@@H]2CCCN(CC(=O)N[C@H](C)CC(=O)O)C2=O)CC1
inhibition (INH) [7]: 100%
bioavailability [8]: 23%

C=C(c1ccc(C(=O)OCC)cc1)c1cc2c(cc1C)C(C)(C)CCC2(C)C
bioavailability [4]: 35%

COC(=O)N[C@H](C(=O)N[C@@H](Cc1ccccc1)[C@@H](O)CN(Cc1ccc(-c2ccccn2)cc1)NC(=O)[C@@H](NC(=O)OC)C(C)(C)C)C(C)(C)C [ATAZANAVIR]
F [9]: 1%
bioavailability [10]: 20%

Nc1nc2[nH]cc(CCc3ccc(C(=O)N[C@@H](CCC(=O)O)C(=O)O)cc3)c2c(=O)[nH]1 [PEMETREXED]
logP [11]: 0.75

CCOc1nc2cccc(C(=O)OCc3oc(=O)oc3C)c2n1Cc1ccc(-c2ccccc2-c2noc(=O)[nH]2)cc1 [AZILSARTAN MEDOXOMIL]
Papp A→B [2]: 2.8 ×10⁻⁶ cm/s

CCCCc1nc(Cl)c(C(=O)O)n1Cc1ccc(-c2ccccc2-c2nn[nH]n2)cc1 [CARBOXYLIC ACID METABOLITE]
ED50 [12]: 9.05 µg/kg

CCCc1nc(C(C)(C)O)c(C(=O)O)n1Cc1ccc(-c2ccccc2-c2nnn[nH]2)cc1 [OLMESARTAN]
half-life [13]: 30 min

Cc1oc(=O)oc1COC(=O)CC[C@H](NC(=O)c1ccc(CCc2c[nH]c3[nH]c(N)nc(=O)c23)cc1)C(=O)O
logP ([11]; read-out: logP): 1.72

Nc1ncnc2c1ncn2CCOCP(=O)(O)O [ADEFOVIR]
pEC50 [1]: 4.98

C=C(c1ccc(C(=O)O)cc1)c1cc2c(cc1C)C(C)(C)CCC2(C)C [BEXAROTENE]
bioavailability [4]: 75%

Cc1oc(=O)oc1COC(=O)CC[C@H](NC(=O)c1ccc(CCc2c[nH]c3[nH]c(N)nc(=O)c23)cc1)C(=O)OCc1oc(=O)oc1C
logP ([11]; read-out: logP): 2.64

Cc1oc(=O)oc1COC(=O)N1CC[C@@H](N2CC/C(=C\C3=C(C(=O)O)N4C(=O)[C@@H](NC(=O)/C(=N\O)c5nsc(N)n5)[C@H]4SC3)C2=O)C1
solubility [14]: > 200 µg/mL
